Measured values from US20240327433A1, “PYRIMIDOPYRAN COMPOUND” (Medshine Discovery Inc., priority 2021, published 2024).
Where a name gives a salt, the structure may show the parent alone.

Columns and labels:
p-ERK in AGS cells = test: Assay of p-ERK inhibition in AGS cells (HTRF); assay type: cell-based; settings: Homo sapiens, 3 hours incubation
Procedure: • 1) AGS cells were inoculated in a transparent 96-well cell culture plate, and each well contained […] of cell suspension and 10000 cells. The cell plate was inoculated in a carbon dioxide incubator at 37° C. overnight; • 2) After completion of the incubation, the cell supernatant was discarded. 80 μL of medium containing 0.02% serum was added to each well. The cell plate was incubated in a carbon dioxide incubator at 37° C. overnight; • 3) 2 μL of the compound was weighed and added to 78 μL of the cell medium. After the mixture was mixed thoroughly, 20 μL of the solution of compound was weighed and added to the corresponding well of the cell plate. The cell plate was placed back to the carbon dioxide incubator and incubated for another 3 hours; • 4) After completion of the incubation, the cell supernatant was discarded. 50 μL of 1× cell lysate was added to each well. […] The mixture was incubated at room temperature for at least 4 hours; • 7) After completion of the incubation, HTRF was read with multi-label analyzer: excitation: 320 nm, emission: 615 nm, 665 nm; • 8). IC50 of the compound to be assayed was calculated.

KRAS^G12D AsPC-1 = test: Anti-cell proliferation effect in tumor cell line AsPC-1 (CellTiter-Glo 3D); assay type: cell-based; settings: Homo sapiens, ASPC1, AsPC-1, 120 hours
Procedure: In this assay, the effect of the compounds on inhibiting cell proliferation was studied by detecting the effect of the compounds on the cell activity in vitro in the tumor cell lines AsPC-1 and GP2D.
The tumor cell lines were cultured in a 37° C., 5% CO2 incubator according to the culture conditions indicated in the culture method. Cells were passaged regularly, and cells in logarithmic growth phase were used for plating.
Cells were stained with trypan blue and viable cells were counted.
The cell concentration was adjusted to an appropriate concentration.
To each well of a ULA culture plate was added 135 μL of cell suspension. To the blank control well was added the same volume of culture medium without cells.
After plating, the ULA culture plate was immediately centrifuged at room temperature at 1000 rpm for 10 minutes. Note: After completion of the centrifugation, subsequent operations must be processed carefully to avoid unnecessary shocks.
The culture plate was incubated in a 37° C., 5% CO2, 100% relative humidity incubator overnight.
10× compound working solution (10× working solution in DMSO) was formulated, and then to the ULA culture plate was add 15 μL of 10× compound working solution, and to the vehicle control and blank control was added 15 μL of DMSO-cell culture medium mixture, respectively. […]
The luminescent signal was detected on a 2104 EnVision plate reader. […]

[1] = Plasma protein binding (PPB), equilibrium dialysis, cynomolgus monkey plasma; assay type: in vitro ADME; settings: 2 μM, unbound rate
Procedure: (§1) The protein binding rates of the compound in the plasma of CD-1 mouse, Sprague-Dawley rat, Beagle dog, cynomolgus monkey and human were determined by equilibrium dialysis method.
(§2) The plasmas of the above-mentioned five species were formulated to plasma samples with a compound concentration of 2 μM. The plasma samples were placed in a 96-well rapid equilibrium dialysis device, and dialyzed against phosphate buffered saline at 37±1° C. for 4 h. In this assay, warfarin was used as a control compound. The concentrations of analytes in plasma and dialysis buffer were determined by LC-MS/MS mothed.

[2] = Plasma protein binding (PPB), equilibrium dialysis, CD-1 mouse plasma; assay type: in vitro ADME; settings: 2 μM, unbound rate
Procedure: as §1, §2

[3] = Pharmacokinetic study of oral and intravenously injected compounds in CD-1 mouse; assay type: in vivo
Procedure: To assay the pharmacokinetics of oral and intravenously injected compounds in CD-1 mouse. The assay compound was mixed with 5% DMSO+95% (10% HP-β-CD) aqueous solution. The mixture was vortexed and sonicated to prepare a clear solution of 0.5 mg/mL (intravenous) or a clear solution of 3 mg/mL (oral). The clear solution was filtered by a microporous membrane for use. […] Whole blood was collected for a certain period of time, and prepared to obtain plasma. Drug concentration was analyzed by LC-MS/MS method, and pharmacokinetic parameters were calculated by Phoenix WinNonlin software (Pharsight, USA).

[4] = male, CD-1, plasma, intravenous (IV), about 2 mg/kg
[5] = male, CD-1, plasma, oral (PO), about 30 mg/kg

Cc1cc(N)c(F)c(C2Cc3nc(OC[C@@]45CCCN4C[C@H](F)C5)nc(N4CC5CCC(C4)N5)c3CO2)c1C(F)(F)F (stereo partly drawn) [Compound 1 hydrochloride]
IC50 (p-ERK in AGS cells): 45 nM
IC50 (KRAS^G12D AsPC-1): 315 nM
Unbound PPB C [1]: 6.3%
Unbound PPB M [2]: 2.7%
AUC(0-t) [3, 4]: 0.353 µM·h
C0 [3, 4]: 1400 nM
Vd [3, 4]: 148 L/kg
clearance [3, 4]: 106 mL/min/kg
half-life [3, 4]: 23.1 h
AUC(0-inf) [3, 5]: 1.35 µM·h
Cmax [3, 5]: 228 nM
F ([3]; oral (PO), about 30 mg/kg, oral bioavailability): 25.5%
